According to US20020137929A1, “1 - (3-heterocyclylphenyl) isothiourea, -isourea, -guanidine and -amidine herbicidal agents” (Intellectual Property Department, BASF Aktiengesellschaft, priority 1998, published 2002):

What was measured:
[1] = system: MOOVA (Monochoria); assay: Postemergence weed control under flooded paddy conditions; format: in vivo, Monochoria vaginalis; conditions: postemergence weeds
Summary of the method: (§1)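 Containers holding 3–5 cm weeds and rice at 1.5–2.5 leaves are flooded to 1.5–3 cm above soil. Compound in 50/50 v/v aqueous/acetone is then added directly to the water, about 0.0313–0.500 kg/ha. Plants are kept in the greenhouse and rated 0–9 visually at 3–4 weeks.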

[2] = system: IPOSS (Morningglory Spp.); assay: Preemergence herbicidal evaluation; format: in vivo, Ipomoea Spp.; conditions: rated 4-5 weeks after treatment
Summary of the method: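 Scores (0–9) reflect visual comparison with control plants for stand, vigor, malformation, size and chlorosis. Compound was applied to the soil after sowing, before emergence, as an aqueous acetone spray (about 0.0156–0.500 kg/ha), and cups were kept in a greenhouse for 4–5 weeks.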

[3] = system: GLXMA (Soybean); assay: Preemergence herbicidal evaluation; format: in vivo, Glycine max; conditions: rated 4-5 weeks after treatment
Text: (§2) Results of herbicide evaluation are expressed on a rating scale (0-9). The scale is based upon a visual observation of plant stand, vigor, malformation, size, chlorosis and overall plant appearance as compared with a control.
The preemergence herbicidal activity of the test compounds of the present invention is exemplified by the following tests in which the seeds of a variety of monocotyledonous and dicotyledonous plants are separately mixed with potting soil and planted on top of approximately one inch of soil in separate pint cups. After planting, the cups are sprayed with the selected aqueous acetone solution containing test compound in sufficient quantity to provide the equivalent of about 0.0156 to 0.500 kg per hectare of test compound per cup. The treated cups are then placed on greenhouse benches, watered and cared for in accordance with conventional greenhouse procedures. From four to five weeks after treatment, the tests are terminated and each cup is examined and rated according to the rating system provided in Example 37.
The compounds evaluated are reported by compound number given in Example 37.

[4] = system: CYPIR (Rice Flatsedge); assay: Postemergence weed control under flooded paddy conditions; format: in vivo, Cyperus iria; conditions: postemergence weeds
Summary of the method: as §1

[5] = system: ECHORC (Watergrass (Calif.)); assay: as above; format: in vivo, Echinochloa oryzoides; conditions: postemergence weeds
Summary of the method: as §1

[6] = system: GLXMA (Soybean); assay: Postemergence herbicidal evaluation; format: in vivo, Glycine max
Summary of the method: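 Seedlings grown about two weeks were sprayed at 40 psi with compound dispersed in 50/50 acetone/water plus 0.5% TWEEN 20, at about 0.0156 to 0.500 kg/ha. Plants were kept in the greenhouse and scored 4–5 weeks later on a 0–9 visual scale against untreated controls.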

[7] = system: IPOSS (Morningglory Spp.); assay: Postemergence herbicidal evaluation; format: in vivo, Ipomoea Spp.
Procedure: In the tests, seedling plants are grown in jiffy flats for about two weeks. The test compounds are dispersed in 50/50 acetone/water mixtures containing 0.5% TWEEN®20, a polyoxyethylene sorbitan monolaurate surfactant of Atlas Chemical Industries, in sufficient quantities to provide the equivalent of about 0.0156 kg to 0.500 kg per hectare of active compound when applied to the plants through a spray nozzle operating at 40 psi for a predetermined time. After spraying, the plants are placed on greenhouse benches and are cared for in accordance with conventional greenhouse procedures. From four to five weeks after treatment, the seedling plants are examined and rated according to the rating system set forth below. Where more than one test is involved for a given compound, the data are averaged.
Plant species employed in these evaluations are reported by header abbreviation, common name and scientific name.
as §2

[8] = rate 0.0313 kg/ha, 3-4 weeks after treatment
[9] = rate 0.0625 kg/ha, 3-4 weeks after treatment
[10] = rate 0.1250 kg/ha, 3-4 weeks after treatment
[11] = rate 0.2500 kg/ha, 3-4 weeks after treatment
[12] = rate 0.5000 kg/ha, 3-4 weeks after treatment
[13] = Rate 0.0313 kg/ha, rated 3 to 4 weeks after treatment
[14] = Rate 0.0625 kg/ha, rated 3 to 4 weeks after treatment
[15] = Rate 0.1250 kg/ha, rated 3 to 4 weeks after treatment
[16] = Rate 0.2500 kg/ha, rated 3 to 4 weeks after treatment

CC1SC(=Nc2cc(N3C(=O)C4=C(CCCC4)C3=O)c(F)cc2Cl)N(C)C1=O (stereo not shown) [Compound 4]
Herbicidal rating MOOVA [1, 8]: 1.0
Herbicidal rating MOOVA [1, 9]: 3.5
Herbicidal rating MOOVA [1, 10]: 4.0
Herbicidal rating MOOVA [1, 11]: 5.5
Herbicidal rating MOOVA [1, 12]: 8.0
IPOSS preemergence herbicidal rating ([2]; rate 0.1250 kg/ha): 0.0
IPOSS preemergence herbicidal rating ([2]; rate 0.2500 kg/ha): 2.0
IPOSS preemergence herbicidal rating ([2]; rate 0.5000 kg/ha): 9.0
GLXMA preemergence herbicidal rating ([3]; rate 0.1250 kg/ha): 0.0
GLXMA preemergence herbicidal rating ([3]; rate 0.2500 kg/ha): 2.0
GLXMA preemergence herbicidal rating ([3]; rate 0.5000 kg/ha): 4.0
Herbicidal rating CYPIR [4, 8]: 0.0
Herbicidal rating CYPIR [4, 9]: 2.0
Herbicidal rating CYPIR [4, 10]: 4.5
Herbicidal rating CYPIR [4, 11]: 6.5
Herbicidal rating CYPIR [4, 12]: 9.0
Herbicidal rating ECHORC [5, 8]: 1.0
Herbicidal rating ECHORC [5, 9]: 2.0
Herbicidal rating ECHORC [5, 10]: 3.5
Herbicidal rating ECHORC [5, 11]: 4.0
Herbicidal rating ECHORC [5, 12]: 5.0
GLXMA herbicidal rating ([6]; rate 0.0313 kg/ha): 2.0
GLXMA herbicidal rating ([6]; rate 0.0625 kg/ha): 2.5
GLXMA herbicidal rating ([6]; rate 0.1250 kg/ha): 4.5
GLXMA herbicidal rating ([6]; rate 0.2500 kg/ha): 4.5
GLXMA herbicidal rating ([6]; rate 0.5000 kg/ha): 4.5
IPOSS herbicidal rating ([7]; rate 0.0313 kg/ha): 0.0
IPOSS herbicidal rating ([7]; rate 0.0625 kg/ha): 0.0
IPOSS herbicidal rating ([7]; rate 0.1250 kg/ha): 0.0
IPOSS herbicidal rating ([7]; rate 0.2500 kg/ha): 1.0
IPOSS herbicidal rating ([7]; rate 0.5000 kg/ha): 4.0

CCOC(=O)CN1C(=O)C(Cc2ccccc2OC(C)C(=O)O)S/C1=N/c1cc(-n2c(=O)cc(C(F)(F)F)n(C)c2=O)c(F)cc1Cl (stereo not shown) [Compound 114, 5-[o-(1-Carboxyethoxy)benzyl]-2-{{2-chloro-5-[3,6-dihydro-3-methyl-2,6-dioxo-4-(trifluoromethyl)-1(2H)-pyrimidinyl]-4-fluorophenyl}imino}-4-oxo-3-thiazolidineacetic acid, 3-ethyl ester]
Herbicidal rating MOOVA [1, 13]: 6.0
Herbicidal rating MOOVA [1, 14]: 8.0
Herbicidal rating MOOVA [1, 15]: 9.0
Herbicidal rating MOOVA [1, 16]: 9.0
Herbicidal rating CYPIR [4, 13]: 0.0
Herbicidal rating CYPIR [4, 14]: 0.0
Herbicidal rating CYPIR [4, 15]: 4.0
Herbicidal rating CYPIR [4, 16]: 7.0
Herbicidal rating ECHORC [5, 13]: 0.0
Herbicidal rating ECHORC [5, 14]: 0.0
Herbicidal rating ECHORC [5, 15]: 0.0
Herbicidal rating ECHORC [5, 16]: 0.0
